From US20050043331A1, “Substituted 3-(2,5-disubstituted)pyridyl-4-aryl pyrroles for treating inflammatory diseases” (priority 2002, published 2005)

Key:
[1] = molecular target: T1, P38 (Homo sapiens, UniProt Q16539); test: P38 cell, 1 μM LJ; type: cell-based; set-up: unit not given here
[2] = molecular target: T1, P38; test: p38 inhibition in-vitro enzyme assay; type: biochemical; conditions: recombinant 6×His-p38
Description: Purified recombinant 6×His-p38 and GST-ATF2 (both expressed in Baculovirus) were served as enzyme and substrate in our p38 inhibition assay. The enzyme reaction was performed in the anti-GST antibody pre-coated 96-well ELISA plate.
A 96-well ELISA plate was coated with 100 μl/well of anti-GST antibody (from Amersham) at a concentration of […] and incubated overnight at 4° C. The ELISA plate was blocked with 100 μl/well of 1% BSA at 25° C. for at least 2 hours, then the plate was washed with 300 μl PBST. The enzyme reaction was started by adding 10 μl of p38 recombinant protein (0.05 nM in final concentration), 10 μl of compound in desired concentration, 10 μl of substrates (670 μM ATP, 200 nM GST-ATF2 in final concentration) and 70 μl of reaction buffer (50 mM HEPES, pH 7.4, 100 mM NaCl, 10 mM MgCl2) and the mixture was incubated at 37° C. for 30 min. Washing the reaction plate with 3×300 μl/well of PBST stopped the enzyme reaction. Detection of the phosphorylated ATF2 substrate was done by the addition of 100 μl of anti-Pi-ATF2 antibody (from Cell Signaling) at a 1:200 dilution. The mixture was incubated at 25° C. for 30 min. A solution of 100 μl of HRP-conjugated goat anti-rabbit antibody (from Pierce) at a 1:250 dilution was added and the mixture and incubated at 25° C. for 30 min. The plate was washed with 6×300 μI PBST and 100 μl of OPD substrate (from Sigma) was then added. The mixture was incubated at 25° C. for 10 min. before adding 100 μl of 3 N H2SO4. The plate was read at 490 nm.
The % inhibition of each test compound was calculated by the following formula: % inhibition=[1−(sample−BKG)/(CTRL−BKG)]×100. The IC50 of each test compound was determined by a triplicate-8 point dose titration curve by Prism GraphPad program. […]

[3] = system: TNF-α; test: In vivo rodent assay for inhibition of LPS-induced TNF-α production; set-up: species or system Mice (BALB/cJ females); conditions: Mus musculus, po, 0.5 h, 10 mg/kg oral, 0.5 h, read-out: Mouse 10 mg/kg % inhib 0.5 h
Method in brief: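 Female BALB/cJ mice or male Lewis rats, fasted 30 min, received compound orally (mg/kg) at various times before intraperitoneal LPS at 1 mg/kg. Blood was collected by cardiac puncture 1 h after LPS, and serum TNF-α was quantified by species-specific ELISA.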

[4] = system: TNF-α; test: In-vitro whole cell assay for TNF-α inhibition (LPS-stimulated PBMC, ELISA); type: cell-based; conditions: TNF-α by ELISA
Method in brief: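 Human PBMC from heparinized venous blood (Ficoll-Hypaque), 1.67×10^6/mL in low-endotoxin RPMI/1% FCS, preincubated with compound 1 h at 37° C, then stimulated with LPS (200 ng/mL stock) overnight at 37° C. Duplicate wells. Supernatant TNF-α quantified by ELISA.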

T1 sequence (Q16539 whole entry): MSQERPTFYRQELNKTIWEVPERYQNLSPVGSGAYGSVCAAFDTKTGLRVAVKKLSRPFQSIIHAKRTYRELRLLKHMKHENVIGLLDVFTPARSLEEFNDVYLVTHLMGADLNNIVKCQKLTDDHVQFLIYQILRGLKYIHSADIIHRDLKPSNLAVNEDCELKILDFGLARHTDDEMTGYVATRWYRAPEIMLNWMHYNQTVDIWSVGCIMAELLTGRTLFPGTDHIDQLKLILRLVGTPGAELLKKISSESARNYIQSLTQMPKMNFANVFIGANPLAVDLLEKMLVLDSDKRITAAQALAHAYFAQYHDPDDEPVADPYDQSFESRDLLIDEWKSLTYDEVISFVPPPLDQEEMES

COC(=O)c1c(-c2ccc(F)cc2)c(-c2ccncc2)c(NCCN2CCOCC2)n1C [Cpd 5]
P38 cell 1 μM LJ [1]: 2 | IC50 [2]: > 10000 nM | inhibition in vivo at 10 mg/kg [3]: 44% | IC50 [4]: 50 nM

COC(=O)c1c(-c2ccc(F)cc2)c(-c2ccncc2)c(N(C)CCN2CCOCC2)n1C [Cpd 11, 3-(4-Fluorophenyl)-1-methyl-5-[methyl[2-(4-morpholinyl)ethyl]amino]-4-(4-pyridinyl)-1H-pyrrole-2-carboxylic acid methyl ester]
IC50 [2]: > 10000 nM | inhibition in vivo at 10 mg/kg [3]: 66% | IC50 [4]: 38 nM

Fc1ccc(-c2cn3c(c2-c2ccncc2)CN(Cc2ccccc2)CC3)cc1 [Cpd 29, 7-(4-Fluorophenyl)-1,2,3,4-tetrahydro-2-(phenylmethyl)-8-(4-pyridinyl)-pyrrolo[1,2-a]pyrazine]
IC50 [2]: 1660 nM | inhibition in vivo at 10 mg/kg [3]: -6% | IC50 [4]: 11 nM

O=C1c2c(-c3ccncc3)c(-c3ccc(F)cc3)cn2C(=O)N1Cc1ccccc1 [Cpd 50]
IC50 [2]: > 10000 nM | inhibition in vivo at 10 mg/kg [3]: 51% | IC50 [4]: 26 nM

O=C(NCc1ccccc1)c1[nH]cc(-c2ccc(F)cc2)c1-c1ccncc1 [Cpd 51]
IC50 [2]: > 10000 nM | inhibition in vivo at 10 mg/kg [3]: -60% | IC50 [4]: 14 nM

CCCc1[nH]cc(-c2ccc(F)cc2)c1-c1ccnc(N[C@@H](C)c2ccccc2)n1 [Cpd 53]
IC50 [2]: 1440 nM | inhibition in vivo at 10 mg/kg [3]: -19% | IC50 [4]: 10 nM

CCOC(=O)c1[nH]cc(-c2ccc(F)cc2)c1-c1ccncc1 [Cpd 54]
IC50 [2]: > 10000 nM | IC50 [4]: 145 nM

Fc1ccc(-c2c[nH]c(CN3CCNCC3)c2-c2ccncc2)cc1 [Cpd 56]
IC50 [2]: 856 nM | inhibition in vivo at 10 mg/kg [3]: -41% | IC50 [4]: 63 nM

OCc1c(-c2ccc(F)cc2)c(-c2ccncc2)cn1CCN1CCOCC1 [Cpd 59]
P38 cell 1 μM LJ [1]: 4 | IC50 [2]: 16 nM | inhibition in vivo at 10 mg/kg [3]: -50% | IC50 [4]: 277 nM

CCCc1[nH]cc(-c2ccc(F)cc2)c1-c1ccnc(N[C@@H](C)COC)n1 [Cpd 61]
P38 cell 1 μM LJ [1]: 91 | IC50 [2]: 5 nM | inhibition in vivo at 10 mg/kg [3]: -35% | IC50 [4]: 86 nM

CCOC(=O)c1[nH]cc(-c2ccncc2)c1-c1cc(F)cc(F)c1 [Cpd 62]
P38 cell 1 μM LJ [1]: 0 | IC50 [2]: 3470 nM | inhibition in vivo at 10 mg/kg [3]: -14% | IC50 [4]: 114 nM

OCCNCc1[nH]cc(-c2ccc(F)cc2)c1-c1ccncc1 [Cpd 63]
P38 cell 1 μM LJ [1]: 8 | IC50 [2]: > 2000 nM | IC50 [4]: 148 nM

CCOC(=O)c1c(-c2cc(F)cc(F)c2)c(-c2ccncc2)cn1C [Cpd 64]
P38 cell 1 μM LJ [1]: 7 | IC50 [2]: 8690 nM | inhibition in vivo at 10 mg/kg [3]: -31% | IC50 [4]: 33 nM

CCCc1c(-c2ccnc(N[C@@H](C)COC)n2)c(-c2ccc(F)cc2)cn1CCN1CCOCC1 [Cpd 65]
P38 cell 1 μM LJ [1]: 102 | IC50 [2]: 21 nM | inhibition in vivo at 10 mg/kg [3]: -1% | IC50 [4]: 1 nM

Nc1[nH]cc(-c2ccc(F)cc2)c1-c1ccncc1 [Cpd 66]
P38 cell 1 μM LJ [1]: 6 | IC50 [2]: 905 nM | IC50 [4]: 905 nM

C[C@H](Nc1nccc(-c2c[nH]cc2-c2ccc(F)cc2)n1)c1ccccc1 [Cpd 67]
P38 cell 1 μM LJ [1]: 90 | IC50 [2]: 55 nM | IC50 [4]: 3 nM

C[C@H](Nc1nccc(-c2cn(CCN3CCOCC3)cc2-c2ccc(F)cc2)n1)c1ccccc1 [Cpd 68]
P38 cell 1 μM LJ [1]: 83 | IC50 [2]: 7 nM | inhibition in vivo at 10 mg/kg [3]: -21% | IC50 [4]: 4 nM

CCOC(=O)c1[nH]cc(-c2ccncc2)c1-c1ccc(F)c(F)c1 [Cpd 69]
P38 cell 1 μM LJ [1]: 17 | IC50 [2]: > 10000 nM | inhibition in vivo at 10 mg/kg [3]: -32% | IC50 [4]: 560 nM

CCOC(=O)c1c(-c2ccc(F)c(F)c2)c(-c2ccncc2)c(Br)n1C [Cpd 70]
P38 cell 1 μM LJ [1]: 12 | IC50 [2]: > 10000 nM | inhibition in vivo at 10 mg/kg [3]: -36% | IC50 [4]: 2720 nM

CCOC(=O)c1[nH]cc(-c2ccncc2)c1-c1ccccc1 [Cpd 71]
P38 cell 1 μM LJ [1]: 9 | IC50 [2]: 572 nM | inhibition in vivo at 10 mg/kg [3]: 58% | IC50 [4]: 149 nM

Fc1ccc(-c2c[nH]c(CNCc3ccncc3)c2-c2ccncc2)cc1 [Cpd 74]
P38 cell 1 μM LJ [1]: 25 | IC50 [2]: 400 nM | inhibition in vivo at 10 mg/kg [3]: 47% | IC50 [4]: 74 nM

Cn1cc(-c2ccc(F)cc2)c(-c2ccncc2)c1N1CCNCC1 [Cpd 78]
P38 cell 1 μM LJ [1]: 61 | IC50 [2]: 2020 nM | inhibition in vivo at 10 mg/kg [3]: 75% | IC50 [4]: 15 nM

CCOC(=O)c1c(-c2ccc(C)cc2)c(-c2ccncc2)c(N2CCNCC2)n1C [Cpd 83]
P38 cell 1 μM LJ [1]: 53 | IC50 [2]: 3940 nM | inhibition in vivo at 10 mg/kg [3]: 79% | IC50 [4]: 60 nM

COC(=O)c1c(-c2ccc(F)cc2)c(-c2ccncc2)c(N2CCc3ccccc3C2)n1C [Cpd 93]
P38 cell 1 μM LJ [1]: 20 | IC50 [2]: > 10000 nM | inhibition in vivo at 10 mg/kg [3]: 32% | IC50 [4]: 66 nM

CCOC(=O)c1c(-c2ccc(F)cc2)c(-c2ccncc2)c(N2CCNCC2)n1C [Cpd 96]
P38 cell 1 μM LJ [1]: 22 | IC50 [2]: > 10000 nM | inhibition in vivo at 10 mg/kg [3]: 79% | IC50 [4]: 16 nM

CNC(=O)c1c(-c2ccc(F)cc2)c(-c2ccncc2)c(N2CCNCC2)n1C [Cpd 99]
P38 cell 1 μM LJ [1]: 7 | IC50 [2]: > 10000 nM | inhibition in vivo at 10 mg/kg [3]: -7% | IC50 [4]: 106 nM

CCOC(=O)c1c(-c2cc(F)cc(F)c2)c(-c2ccncc2)c(N2CCNCC2)n1C [Cpd 100]
P38 cell 1 μM LJ [1]: 12 | IC50 [2]: > 10000 nM | inhibition in vivo at 10 mg/kg [3]: 75% | IC50 [4]: 93 nM

CN(C)C(=O)c1c(-c2ccc(F)cc2)c(-c2ccncc2)c(N2CCNCC2)n1C [Cpd 101]
P38 cell 1 μM LJ [1]: 13 | IC50 [2]: > 10000 nM | IC50 [4]: 120 nM

COC(=O)c1c(-c2ccc(F)cc2)c(-c2ccncc2)c(Cc2ccc(N(C)C)cc2)n1C [Cpd 102]
P38 cell 1 μM LJ [1]: 12 | IC50 [2]: > 10000 nM | inhibition in vivo at 10 mg/kg [3]: 15% | IC50 [4]: 118 nM

COC(=O)c1c(-c2ccc(F)cc2)c(-c2ccncc2)c(NCc2ccncc2)n1C [Cpd 103]
P38 cell 1 μM LJ [1]: 20 | IC50 [2]: > 10000 nM | inhibition in vivo at 10 mg/kg [3]: -22% | IC50 [4]: 145 nM

CCOC(=O)c1c(-c2cccc(C(F)(F)F)c2)c(-c2ccncc2)c(N2CCNCC2)n1C [Cpd 104]
P38 cell 1 μM LJ [1]: 11 | IC50 [2]: > 10000 nM | inhibition in vivo at 10 mg/kg [3]: 83% | IC50 [4]: 21 nM

COC(=O)c1c(-c2cccc(F)c2)c(-c2ccncc2)c(N2CCNCC2)n1C [Cpd 105]
P38 cell 1 μM LJ [1]: 31 | IC50 [2]: > 10000 nM | inhibition in vivo at 10 mg/kg [3]: 49% | IC50 [4]: 69 nM

CCC(=O)c1c(-c2ccc(F)cc2)c(-c2ccncc2)c(N2CCNCC2)n1C [Cpd 106]
P38 cell 1 μM LJ [1]: 21 | IC50 [2]: > 10000 nM | inhibition in vivo at 10 mg/kg [3]: 32% | IC50 [4]: 67 nM

CCN1CCCC1CNc1c(-c2ccncc2)c(-c2ccc(F)cc2)c(C(=O)OC)n1C (stereo not shown) [Cpd 109]
IC50 [2]: 6180 nM | IC50 [4]: 7750 nM

CCCc1c(-c2ccnc(N[C@@H](C)COC)n2)c(-c2ccc(F)cc2)cn1C(=O)OC(C)(C)C [Cpdd 58]
IC50 [2]: 1350 nM | IC50 [4]: 50 nM
